Target: human Nav1.7 (Homo sapiens (Human), UniProt Q15858)
Assay: Nav 1.7 In Vitro PX Assay (PatchXpress whole cell voltage clamp)
Assay type: cell-based
Conditions: in-vitro Nav 1.7 PX data
Description: HEK 293 cells stably transfected with human Nav1.7 were recorded in whole cell voltage clamp mode with the PatchXpress automated electrophysiology system (Molecular Devices, LLC, Sunnyvale, Calif.). Compound effects were measured on a partially inactivated state of the sodium channel. Cells were clamped to a holding potential yielding 20 to 50% inactivation. To elicit sodium current, channels were activated by pulsing to −10 mV for 20 msec. This voltage protocol was repeated at a rate of 0.1 Hz throughout the experiment. A single concentration of test compound was applied to cells for a duration of 3 minutes. Peak sodium current was measured at the end of the compound addition period to determine percent inhibition. Three to five cells were tested per concentration, and IC50 curves were fitted to percent inhibition as a function of concentration.

human Nav1.7, sequence (Q15858 whole entry): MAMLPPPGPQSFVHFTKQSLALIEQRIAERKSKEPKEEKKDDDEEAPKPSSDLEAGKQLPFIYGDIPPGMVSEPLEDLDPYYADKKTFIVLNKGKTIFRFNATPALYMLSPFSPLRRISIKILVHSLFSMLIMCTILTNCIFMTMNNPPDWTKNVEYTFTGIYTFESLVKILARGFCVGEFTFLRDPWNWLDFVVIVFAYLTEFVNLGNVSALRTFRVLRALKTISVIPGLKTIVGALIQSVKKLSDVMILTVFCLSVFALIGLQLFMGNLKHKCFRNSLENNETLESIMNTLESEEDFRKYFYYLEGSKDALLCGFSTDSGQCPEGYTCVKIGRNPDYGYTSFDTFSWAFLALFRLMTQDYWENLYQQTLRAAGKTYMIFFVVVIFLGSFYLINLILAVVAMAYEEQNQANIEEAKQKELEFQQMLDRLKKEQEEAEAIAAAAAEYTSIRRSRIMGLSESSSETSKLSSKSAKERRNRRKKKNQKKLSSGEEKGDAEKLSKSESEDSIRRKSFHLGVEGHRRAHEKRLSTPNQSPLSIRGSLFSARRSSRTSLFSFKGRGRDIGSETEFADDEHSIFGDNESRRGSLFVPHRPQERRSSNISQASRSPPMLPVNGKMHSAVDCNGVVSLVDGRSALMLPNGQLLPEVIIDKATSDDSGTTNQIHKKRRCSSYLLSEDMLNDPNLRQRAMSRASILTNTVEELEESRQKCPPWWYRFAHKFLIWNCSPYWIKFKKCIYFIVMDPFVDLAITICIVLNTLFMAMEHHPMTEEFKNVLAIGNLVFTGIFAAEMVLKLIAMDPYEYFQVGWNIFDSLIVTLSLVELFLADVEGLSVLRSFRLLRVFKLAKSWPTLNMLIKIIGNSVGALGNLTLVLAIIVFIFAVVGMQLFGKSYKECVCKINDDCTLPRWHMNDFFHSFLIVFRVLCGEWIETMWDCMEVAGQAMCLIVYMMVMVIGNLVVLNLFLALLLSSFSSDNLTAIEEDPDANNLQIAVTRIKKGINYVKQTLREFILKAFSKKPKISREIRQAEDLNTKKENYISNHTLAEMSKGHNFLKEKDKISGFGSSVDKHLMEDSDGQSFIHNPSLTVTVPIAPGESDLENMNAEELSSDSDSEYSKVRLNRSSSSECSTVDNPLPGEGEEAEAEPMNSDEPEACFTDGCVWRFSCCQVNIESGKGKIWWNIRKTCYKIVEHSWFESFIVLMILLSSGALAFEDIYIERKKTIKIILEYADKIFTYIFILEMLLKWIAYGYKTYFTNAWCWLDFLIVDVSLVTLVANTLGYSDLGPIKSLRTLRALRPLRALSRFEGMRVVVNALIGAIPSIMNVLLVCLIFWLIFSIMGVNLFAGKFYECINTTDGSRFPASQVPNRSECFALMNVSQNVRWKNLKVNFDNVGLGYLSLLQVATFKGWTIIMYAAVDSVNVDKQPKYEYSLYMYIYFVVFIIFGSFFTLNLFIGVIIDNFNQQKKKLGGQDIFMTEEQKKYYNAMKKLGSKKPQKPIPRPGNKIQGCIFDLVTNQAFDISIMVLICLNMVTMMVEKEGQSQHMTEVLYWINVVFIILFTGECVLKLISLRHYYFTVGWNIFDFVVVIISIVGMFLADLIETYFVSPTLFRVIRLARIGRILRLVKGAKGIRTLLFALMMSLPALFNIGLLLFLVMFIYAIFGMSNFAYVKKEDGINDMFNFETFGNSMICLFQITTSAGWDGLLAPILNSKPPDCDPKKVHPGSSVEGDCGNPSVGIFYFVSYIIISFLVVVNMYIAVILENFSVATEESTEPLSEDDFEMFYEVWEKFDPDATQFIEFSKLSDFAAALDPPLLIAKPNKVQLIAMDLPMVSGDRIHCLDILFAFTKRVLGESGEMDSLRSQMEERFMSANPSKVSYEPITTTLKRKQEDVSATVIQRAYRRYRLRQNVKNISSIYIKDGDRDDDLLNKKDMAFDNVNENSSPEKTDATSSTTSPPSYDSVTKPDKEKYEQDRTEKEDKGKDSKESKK

Row | IC50 | Compound
1 | 64 nM | CNC(=O)N(c1ccc(S(=O)(=O)Nc2ccon2)cn1)c1cc(Cl)c(-c2ccc(C)c(F)c2)cc1OC [Example 1-62, 6-((2-chloro-3′-fluoro-5-methoxy-4′-methyl-4-biphenylyl)(methylcarbamoyl)amino)-N-3-isoxazolyl-3-pyridinesulfonamide]
2 | 28 nM | CNC(=O)N(c1ccc(S(=O)(=O)Nc2ccon2)cn1)c1cc(Cl)c(-c2ccc(Cl)c(F)c2)cc1OC [Example 1-63, 6-((2,4′-dichloro-3′-fluoro-5-methoxy-4-biphenylyl)(methylcarbamoyl)amino)-N-3-isoxazolyl-3-pyridinesulfonamide]
3 | 78 nM | CNC(=O)N(c1ccc(S(=O)(=O)Nc2ccon2)cn1)c1cc(Cl)c(-c2cc(OC)cc(OC)c2)cc1OC [Example 1-64, 6-((2-chloro-3′,5,5′-trimethoxy-4-biphenylyl)(methylcarbamoyl)amino)-N-3-isoxazolyl-3-pyridinesulfonamide]
4 | 54 nM | CNC(=O)N(c1ccc(S(=O)(=O)Nc2ccon2)cn1)c1cc(Cl)c(-c2ccc(F)c(F)c2)cc1OC [Example 1-65, 6-((2-chloro-3′,4′-difluoro-5-methoxy-4-biphenylyl)(methylcarbamoyl)amino)-N-3-isoxazolyl-3-pyridinesulfonamide]
5 | 59 nM | CNC(=O)N(c1ccc(S(=O)(=O)Nc2ccon2)cn1)c1cc(Cl)c(-c2cc(OC)c(F)c(OC)c2)cc1OC [Example 1-66, 6-((2-chloro-4′-fluoro-3′,5,5′-trimethoxy-4-biphenylyl)(methylcarbamoyl)amino)-N-3-isoxazolyl-3-pyridinesulfonamide]
6 | 34 nM | CCOc1cc(-c2cc(OC)c(N(C(=O)NC)c3ccc(S(=O)(=O)Nc4ccon4)cn3)cc2Cl)ccc1F [Example 1-67, 6-((2-chloro-3′-ethoxy-4′-fluoro-5-methoxy-4-biphenylyl)(methylcarbamoyl)amino)-N-3-isoxazolyl-3-pyridinesulfonamide]
7 | 23 nM | CNC(=O)N(c1ccc(S(=O)(=O)Nc2ccon2)cn1)c1cc(Cl)c(-c2cc(F)c(F)c(OC)c2)cc1OC [Example 1-68, 6-((2-chloro-3′,4′-difluoro-5,5′-dimethoxy-4-biphenylyl)(methylcarbamoyl)amino)-N-3-isoxazolyl-3-pyridinesulfonamide]
8 | 6 nM | CNC(=O)N(c1ccc(S(=O)(=O)Nc2ccon2)cn1)c1cc(Cl)c(-c2ccc(F)c(OC(F)(F)F)c2)cc1OC [Example 1-69, 6-((2-chloro-4′-fluoro-5-methoxy-3′-(trifluoromethoxy)-4-biphenylyl)(methylcarbamoyl)amino)-N-3-isoxazolyl-3-pyridinesulfonamide]
9 | 52 nM | CNC(=O)N(c1ccc(S(=O)(=O)Nc2ccon2)cn1)c1cc(Cl)c(-c2ccc(Cl)cc2)cc1OC [Example 1-70, 6-((2,4′-dichloro-5-methoxy-4-biphenylyl)(methylcarbamoyl)amino)-N-3-isoxazolyl-3-pyridinesulfonamide]
10 | 398 nM | CNC(=O)N(c1ccc(S(=O)(=O)Nc2ccon2)cn1)c1ccc(-c2ccc(F)c(C)c2)cc1OC [Example 1-71, 6-((4′-fluoro-3-methoxy-3′-methyl-4-biphenylyl)(methylcarbamoyl)amino)-N-3-isoxazolyl-3-pyridinesulfonamide]
11 | 101 nM | CNC(=O)N(c1ccc(S(=O)(=O)Nc2ccon2)cn1)c1ccc(-c2cc(Cl)cc(OC)c2)cc1OC [Example 1-72, 6-((3′-chloro-3,5′-dimethoxy-4-biphenylyl)(methylcarbamoyl)amino)-N-3-isoxazolyl-3-pyridinesulfonamide]
12 | 65 nM | CNC(=O)N(c1ccc(S(=O)(=O)Nc2ccon2)cn1)c1ccc(-c2ccc(Cl)c(C)c2)cc1OC [Example 1-73, 6-((4′-chloro-3-methoxy-3′-methyl-4-biphenylyl)(methylcarbamoyl)amino)-N-3-isoxazolyl-3-pyridinesulfonamide]
13 | 84 nM | CNC(=O)N(c1ccc(S(=O)(=O)Nc2ccon2)cn1)c1ccc(-c2cc(F)cc(Cl)c2)cc1OC [Example 1-74, 6-((3′-chloro-5′-fluoro-3-methoxy-4-biphenylyl)(methylcarbamoyl)amino)-N-3-isoxazolyl-3-pyridinesulfonamide]
14 | 106 nM | CNC(=O)N(c1ccc(S(=O)(=O)Nc2ncccn2)cn1)c1cc(Cl)c(-c2ccc(Cl)c(C#N)c2)cc1OC [Example 1-75, 6-((2,4′-dichloro-3′-cyano-5-methoxy-4-biphenylyl)(methylcarbamoyl)amino)-N-2-pyrimidinyl-3-pyridinesulfonamide]
15 | 116 nM | CNC(=O)N(c1ccc(S(=O)(=O)Nc2ncccn2)cn1)c1cc(Cl)c(-c2ccc(F)c(F)c2)cc1OC [Example 1-76, 6-((2-chloro-3′,4′-difluoro-5-methoxy-4-biphenylyl)(methylcarbamoyl)amino)-N-2-pyrimidinyl-3-pyridinesulfonamide]
16 | 70 nM | CNC(=O)N(c1ccc(S(=O)(=O)Nc2ncccn2)cn1)c1cc(Cl)c(-c2ccc(Cl)c(OC)c2)cc1OC [Example 1-77, 6-((2,4′-dichloro-3′,5-dimethoxy-4-biphenylyl)(methylcarbamoyl)amino)-N-2-pyrimidinyl-3-pyridinesulfonamide]
17 | 123 nM | CNC(=O)N(c1ccc(S(=O)(=O)Nc2ncccn2)cn1)c1cc(Cl)c(-c2cc(Cl)cc(C#N)c2)cc1OC [Example 1-78, 6-((2,3′-dichloro-5′-cyano-5-methoxy-4-biphenylyl)(methylcarbamoyl)amino)-N-2-pyrimidinyl-3-pyridinesulfonamide]
18 | 166 nM | CNC(=O)N(c1ccc(S(=O)(=O)Nc2ncccn2)cn1)c1cc(Cl)c(-c2cc(OC)cc(OC)c2)cc1OC [Example 1-79, 6-((2-chloro-3′,5,5′-trimethoxy-4-biphenylyl)(methylcarbamoyl)amino)-N-2-pyrimidinyl-3-pyridinesulfonamide]
19 | 39 nM | CNC(=O)N(c1ccc(S(=O)(=O)Nc2ncccn2)cn1)c1cc(F)c(-c2ccc(Cl)c(C)c2)cc1OC [Example 1-80, 6-((4′-chloro-2-fluoro-5-methoxy-3′-methyl-4-biphenylyl)(methylcarbamoyl)amino)-N-2-pyrimidinyl-3-pyridinesulfonamide]
20 | 143 nM | CNC(=O)N(c1ccc(S(=O)(=O)Nc2ncccn2)cn1)c1cc(F)c(-c2cccc(C(F)(F)F)c2)cc1OC [Example 1-81, 6-((2-fluoro-5-methoxy-3′-(trifluoromethyl)-4-biphenylyl)(methylcarbamoyl)amino)-N-2-pyrimidinyl-3-pyridinesulfonamide]
21 | 18 nM | CNC(=O)N(c1ccc(S(=O)(=O)Nc2ncccn2)cn1)c1cc(F)c(-c2cc(OC)cc(C(F)(F)F)c2)cc1OC [Example 1-82, 6-((2-fluoro-3′,5-dimethoxy-5′-(trifluoromethyl)-4-biphenylyl)(methylcarbamoyl)amino)-N-2-pyrimidinyl-3-pyridinesulfonamide]
22 | 32 nM | CNC(=O)N(c1ccc(S(=O)(=O)Nc2ncccn2)cn1)c1cc(F)c(-c2ccc(Cl)c(Cl)c2)cc1OC [Example 1-83, 6-((3′,4′-dichloro-2-fluoro-5-methoxy-4-biphenylyl)(methylcarbamoyl)amino)-N-2-pyrimidinyl-3-pyridinesulfonamide]

From patent US10668067B2, “Pyridine sulfonamides” (AMGEN INC., priority 2016, dated 2020)
